Paper PMC5100903, “Tissue Kallikrein Inhibitors Based on the Sunflower Trypsin Inhibitor Scaffold – A Potential Therapeutic Intervention for Skin Diseases” (PLoS ONE, 2016)
“Also recorded” adds a separate entry of the source. Like-named read-outs stand apart in the source and are kept apart here. Positions of bridges follow the written chain, without caps; N, C: chain ends. Residues, ends and D or L forms follow the SMILES beside them.

Assays:
[1] = molecular target: T1, Porcine Pancreatic Elastase 1 (Sus scrofa, UniProt P00772); assay: Porcine pancreatic elastase 1 inhibition, MeOSuc-AAPV-AMC assay; type: biochemical; settings: read-out: % inhibition of Porcine Pancreatic Elastase 1
T1 construct: purchased Sigma
Method: (§1) All assays were performed on 96-well microplates and the change in relative fluorescence unit (RFU) was measured by fluorescence spectrometer (BMG FLUOstar OPTIMA). The excitation/emission wavelength was 360/460 nm for the substrate Boc-VPR-AMC (Bachem AG, Hauptstrasse, Switzerland) and MeOSuc-AAPV-AMC (Bachem AG, Hauptstrasse, Switzerland) and 485/520 nm for BODIPY_FL casein (Invitrogen, Carlsbad, US). Stock solution of Boc-VPR-AMC was prepared by dissolving the solid in dimethyl sulfoxide to 100 mM and 10 mM for MeOSuc-AAPV. For BODIPY_FL casein, it was reconstituted to 1 mg/mL in 1xPBS. […] The % of inhibition was calculated by the following equation: % of Inhibition=(1−(Sample RFU − Min RFU)/(Max RFU − Min RFU)) X100
(§2) Each inhibition curves were done in triplicates with a minimum of five concentration points fitted. Fitting of each curve was done using SigmaPlot with the Four Parameter Logistic Function and the IC50 calculated. […] All tested compounds were reconstituted to stock solution in water.
(§3) The diluent for all the tested compounds, protein and substrate (except KLK7, which was done with 10 mM Tris pH 7.8) was 1xPBS pH 8.0–8.9. The serially diluted ligands were mixed with diluted bovine trypsin (Sigma, Dorset, U.K.) or activated KLK14, or KLK5, or activated KLK8 or matriptase (catalytic domain only, >90% purity by SDS-PAGE, endotoxin <0.1 ng/μg, R&D, Minneapolis, U.S.) or activated KLK7 or human neutrophil elastase (purified from human plasma, >95% purity by SDS-PAGE, Abcam, Cambridge, U.K.) or porcine pancreatic elastase 1 (Sigma, Dorset, U.K.) or human plasma kallikrein or human plasma plasmin (purified from human plasma, ≥95% purity by SDS-PAGE, BioVision, Milpitas, U.S.). 20μL of the ligand-protein mixture was pipetted to a well of a 96-well microplate in triplicates. The reaction was started by addition of 90–100 μL of the diluted substrate solution (contained 0.05% v/v Brij35) and the plate incubated at 25°C but 37°C for KLK7. RFU reading for each well was taken 6 minutes (trypsin) or 15 minutes (KLK14, KLK5, KLK8, matriptase, human neutrophil elastase, porcine pancreatic elastase 1, plasma kallikrein and plasmin) or 20 hours (KLK7) after substrate addition.

Human Plasma Plasmin = molecular target: T2, Human Plasma Plasmin (Homo sapiens, UniProt P00747); assay: biochemical
T2 construct: human plasma plasmin (purified from human plasma); purchased BioVision; host or cells: human plasma
Method: as §1, §2, §3

Bovine Trypsin = molecular target: T3, Bovine Trypsin (Bos taurus, UniProt P00760); assay: biochemical
T3 construct: purchased Sigma
T3 sequence (P00760 24-246): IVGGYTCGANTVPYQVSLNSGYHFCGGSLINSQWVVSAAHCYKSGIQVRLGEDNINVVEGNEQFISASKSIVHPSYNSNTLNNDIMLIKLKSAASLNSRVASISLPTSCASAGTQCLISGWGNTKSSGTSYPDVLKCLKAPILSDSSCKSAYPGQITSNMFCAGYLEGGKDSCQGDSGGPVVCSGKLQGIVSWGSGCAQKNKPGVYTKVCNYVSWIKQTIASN
Method: as §1, with “The excitation/emission wavelength was 360/460 nm for the substrate Boc-VPR-AMC (Bachem AG, Hauptstrasse, Switzerland) and MeOSuc-AAPV-AMC (Bachem AG, Hauptstrasse, Switzerland) and 485/520 nm for BODIPY_FL casein (Invitrogen, Carlsbad, US).” left out
as §2
The diluent for all the tested compounds, protein and substrate (except KLK7, which was done with 10 mM Tris pH 7.8) was 1xPBS pH 8.0–8.9. […] 20μL of the ligand-protein mixture was pipetted to a well of a 96-well microplate in triplicates. The reaction was started by addition of 90–100 μL of the diluted substrate solution (contained 0.05% v/v Brij35) and the plate incubated at 25°C but 37°C for KLK7. RFU reading for each well was taken 6 minutes (trypsin) or 15 minutes (KLK14, KLK5, KLK8, matriptase, human neutrophil elastase, porcine pancreatic elastase 1, plasma kallikrein and plasmin) or 20 hours (KLK7) after substrate addition.

N-tert skin cells = assay: KLK5-induced IL-8 secretion, ELISA; type: cell-based, human; settings: KLK5 300 nM, Analogue 6 1515 nM (molar excess 5:1), N-tert cells, 6, 24 and 48 hours
KLK5 = molecular target: T4, KLK5 (Homo sapiens, UniProt Q9Y337); assay: KLK5 inhibition, fluorogenic Boc-VPR-AMC assay (S1 Table conditions); type: biochemical; settings: KLK5 10 nM, Boc-VPR-AMC 41.6 μM, 1xPBS pH 8.0, 15 min on ice preincubation, read at 15 min, 25°C
T4 construct: purchased Novoprotein
T4 sequence (Q9Y337 23-293): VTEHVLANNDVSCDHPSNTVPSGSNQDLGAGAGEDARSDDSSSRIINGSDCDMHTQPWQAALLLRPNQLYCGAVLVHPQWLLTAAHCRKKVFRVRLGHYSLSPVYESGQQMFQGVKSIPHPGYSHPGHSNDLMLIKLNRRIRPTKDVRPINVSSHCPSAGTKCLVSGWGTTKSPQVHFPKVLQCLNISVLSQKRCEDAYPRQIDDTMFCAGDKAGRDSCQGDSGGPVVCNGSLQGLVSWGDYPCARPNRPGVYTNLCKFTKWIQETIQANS
Method: as §1, with “The excitation/emission wavelength was 360/460 nm for the substrate Boc-VPR-AMC (Bachem AG, Hauptstrasse, Switzerland) and MeOSuc-AAPV-AMC (Bachem AG, Hauptstrasse, Switzerland) and 485/520 nm for BODIPY_FL casein (Invitrogen, Carlsbad, US).” left out
as §2
The diluent for all the tested compounds, protein and substrate was 1xPBS pH 8.0. Zinc sulfate and p-aminobenzamidine were purchased from Sigma (Dorset, U.K.). […] The ligand-protein mixtures were incubated on ice for 15 minutes and 20 μL was transferred to a well of a 96-well microplate (ThermoScientific, Waltham, U.S.) in triplicate. […] Change in RFU was measured 15 minutes after substrate addition at 25°C.

[2] = at 10 μM, enzyme 46 nM, MeOSuc-AAPV-AMC 41 μM
[3] = enzyme 24 nM, Boc-VPR-AMC 42 μM, 25°C, 15 minutes

T2 sequence (P00747 581-810 limits assumed): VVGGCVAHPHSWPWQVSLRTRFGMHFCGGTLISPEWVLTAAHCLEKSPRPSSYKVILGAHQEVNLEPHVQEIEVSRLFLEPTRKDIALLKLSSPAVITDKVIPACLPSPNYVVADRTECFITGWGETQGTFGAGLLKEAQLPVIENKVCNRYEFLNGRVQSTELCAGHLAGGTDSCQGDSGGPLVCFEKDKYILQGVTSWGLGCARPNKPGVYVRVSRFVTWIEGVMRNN
T2 sequence (P00747 98-580 partner limits assumed): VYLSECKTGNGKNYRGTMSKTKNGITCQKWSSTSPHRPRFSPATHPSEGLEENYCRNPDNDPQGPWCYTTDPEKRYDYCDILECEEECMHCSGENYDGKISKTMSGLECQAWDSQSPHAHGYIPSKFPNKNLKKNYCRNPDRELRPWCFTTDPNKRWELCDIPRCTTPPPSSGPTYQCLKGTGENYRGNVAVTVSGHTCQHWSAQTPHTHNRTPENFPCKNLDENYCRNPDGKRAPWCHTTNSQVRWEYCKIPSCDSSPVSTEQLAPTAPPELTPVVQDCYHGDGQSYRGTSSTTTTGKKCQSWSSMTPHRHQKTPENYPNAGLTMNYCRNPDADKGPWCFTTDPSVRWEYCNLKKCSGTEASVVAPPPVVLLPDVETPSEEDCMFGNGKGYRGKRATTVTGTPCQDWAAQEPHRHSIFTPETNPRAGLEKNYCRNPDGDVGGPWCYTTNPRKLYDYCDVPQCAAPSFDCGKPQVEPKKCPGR
T1 sequence (P00772 27-266): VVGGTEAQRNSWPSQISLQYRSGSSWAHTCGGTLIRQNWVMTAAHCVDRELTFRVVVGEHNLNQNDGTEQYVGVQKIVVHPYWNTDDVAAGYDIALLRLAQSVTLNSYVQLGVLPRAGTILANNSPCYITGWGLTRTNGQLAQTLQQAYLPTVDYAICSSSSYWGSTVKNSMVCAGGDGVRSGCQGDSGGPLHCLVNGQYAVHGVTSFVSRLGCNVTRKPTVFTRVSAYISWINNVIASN

| Compound | inhibition at 10 µM [1] | IC50 (Human Plasma Plasmin) | IC50 (Bovine Trypsin) | suppression of KLK5-induced IL-8 increase (N-tert skin cells) | IC50 (KLK5) | inhibition at 10 µM [1, 2] | IC50 (Human Plasma Plasmin; [3]) | IC50 (Bovine Trypsin; enzyme 10 nM, Boc-VPR-AMC 21 μM, 25°C, 6 minutes) |
| --- | --- | --- | --- | --- | --- | --- | --- | --- |
| CC[C@H](C)[C@@H]1NC(=O)[C@H](CO)NC(=O)[C@H](CCCCN)NC(=O)[C@H]([C@@H](C)O)NC(=O)[C@@H]2CSSC[C@H](NC(=O)[C@H](Cc3c[nH]cn3)NC(=O)[C@@H]3CCCN3C(=O)[C@@H]3CCCN3C1=O)C(=O)N[C@@H](Cc1c[nH]c3ccccc13)C(=O)N1CCC[C@H]1C(=O)N[C@@H](CC(=O)O)C(=O)NCC(=O)N[C@@H](CCCNC(=N)N)C(=O)N2 [Analogue 2] (cyclo(CTKSIPPHCWPDGR); disulfide 1-9) | 0% | 0.025 ± 0.001 µM | 0.02 ± 0.0002 µM |  |  |  |  |  |
| CC[C@H](C)[C@@H]1NC(=O)[C@H](CO)NC(=O)[C@H](CCCNC(=N)N)NC(=O)[C@H]([C@@H](C)O)NC(=O)[C@@H]2CSSC[C@H](NC(=O)[C@H](Cc3c[nH]cn3)NC(=O)[C@@H]3CCCN3C(=O)[C@@H]3CCCN3C1=O)C(=O)N[C@@H](Cc1c[nH]c3ccccc13)C(=O)N1CCC[C@H]1C(=O)N[C@@H](CC(=O)O)C(=O)NCC(=O)N[C@@H](CCCNC(=N)N)C(=O)N2 [Analogue 6] (cyclo(CTRSIPPHCWPDGR); disulfide 1-9) | 0% | 0.407 ± 0.008 µM | 0.023 ± 0.001 µM | suppress IL-8 increase up to 6 hours (p<0.05) but not 24 hours after stimulation; also recorded: delay the KLK5-induced IL-8 release by up to 6 hours but not for 24 hours |  |  |  |  |
| CC[C@H](C)[C@@H]1NC(=O)[C@H](CO)NC(=O)[C@H](CCCCN)NC(=O)[C@H]([C@@H](C)O)NC(=O)[C@@H]2CSSC[C@H](NC(=O)[C@H](Cc3c[nH]cn3)NC(=O)[C@@H]3CCCN3C(=O)[C@@H]3CCCN3C1=O)C(=O)N[C@@H](Cc1ccccc1)C(=O)N1CCC[C@H]1C(=O)N[C@@H](CC(=O)O)C(=O)NCC(=O)N[C@@H](CCCNC(=N)N)C(=O)N2 [Analogue I10H] (cyclo(CFPDGRCTKSIPPH); disulfide 1-7) |  |  |  |  | 0.76 µM | 0% | 0.161 ± 0.006 µM | 0.046 ± 0.002 µM |
| CC[C@H](C)[C@@H]1NC(=O)[C@@H]2CCCN2C(=O)[C@@H]2CCCN2C(=O)[C@H]([C@@H](C)CC)NC(=O)[C@H](CO)NC(=O)[C@H](CCCCN)NC(=O)[C@H]([C@@H](C)O)NC(=O)[C@@H]2CSSC[C@H](NC1=O)C(=O)N[C@@H](Cc1ccccc1)C(=O)N1CCC[C@H]1C(=O)N[C@@H](CC(=O)O)C(=O)NCC(=O)N[C@@H](CCCNC(=N)N)C(=O)N2 [Native SFTI, Sunflower Trypsin Inhibitor 1, reference compound] |  |  |  |  | 0.3 µM | 0% | 0.024 ± 0.004 µM |  |
